Data from ChEMBL document CHEMBL3860098, “Sulfamide as Zinc Binding Motif in Small Molecule Inhibitors of Activated Thrombin Activatable Fibrinolysis Inhibitor (TAFIa)” (J Med Chem, 2016).
One block for each compound: values may come before it.

Key:
Carboxypeptidase B2 = molecular target: T1, Carboxypeptidase B2 (Homo sapiens, UniProt Q96IY4)
T1 sequence (Q96IY4 whole entry): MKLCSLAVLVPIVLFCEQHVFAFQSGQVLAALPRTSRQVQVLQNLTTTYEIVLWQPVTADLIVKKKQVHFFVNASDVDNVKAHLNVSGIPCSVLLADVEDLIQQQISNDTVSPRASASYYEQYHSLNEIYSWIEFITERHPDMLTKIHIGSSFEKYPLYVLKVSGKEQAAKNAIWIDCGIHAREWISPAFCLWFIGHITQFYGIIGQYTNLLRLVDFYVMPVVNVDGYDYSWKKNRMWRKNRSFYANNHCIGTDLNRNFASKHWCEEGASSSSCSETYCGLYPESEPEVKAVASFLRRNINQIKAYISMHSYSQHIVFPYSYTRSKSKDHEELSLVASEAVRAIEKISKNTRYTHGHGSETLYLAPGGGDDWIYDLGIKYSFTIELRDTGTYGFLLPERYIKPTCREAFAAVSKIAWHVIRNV
Description: Inhibition of activated human plasma TAFI incubated for 15 mins by chromogenic assay

[1] = molecular target: T2, Complement C1s subcomponent (Homo sapiens) (UniProt P09871); test: Inhibition of C1s (unknown origin) at 100 uM relative to control
T2 sequence (whole entry): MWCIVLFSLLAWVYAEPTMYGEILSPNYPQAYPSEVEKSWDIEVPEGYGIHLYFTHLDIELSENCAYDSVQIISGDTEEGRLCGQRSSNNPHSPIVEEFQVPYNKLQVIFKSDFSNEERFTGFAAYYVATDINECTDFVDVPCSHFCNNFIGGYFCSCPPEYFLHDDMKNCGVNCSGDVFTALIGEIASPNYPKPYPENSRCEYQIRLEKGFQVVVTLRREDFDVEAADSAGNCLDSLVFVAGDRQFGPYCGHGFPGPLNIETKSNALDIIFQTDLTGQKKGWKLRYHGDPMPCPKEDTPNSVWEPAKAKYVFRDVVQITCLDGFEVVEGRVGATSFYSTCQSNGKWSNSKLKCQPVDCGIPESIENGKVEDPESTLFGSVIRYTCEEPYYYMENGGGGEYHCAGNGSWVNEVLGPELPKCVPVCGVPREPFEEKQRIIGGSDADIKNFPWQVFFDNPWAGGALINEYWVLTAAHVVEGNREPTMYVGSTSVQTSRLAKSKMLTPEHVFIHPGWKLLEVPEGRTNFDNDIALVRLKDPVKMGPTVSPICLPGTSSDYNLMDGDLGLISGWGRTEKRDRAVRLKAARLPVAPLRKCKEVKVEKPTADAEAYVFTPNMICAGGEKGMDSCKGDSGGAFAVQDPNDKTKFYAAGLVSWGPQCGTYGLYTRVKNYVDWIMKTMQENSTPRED

Homo sapiens [2] = organism: Homo sapiens; test: Inhibition of trypsin (unknown origin) at 100 uM relative to control
[3] = molecular target: Plasma kallikrein (Homo sapiens) (UniProt P03952); conditions: 100 uM
Description: Inhibition of KLKB1 (unknown origin) at 100 uM relative to control

Homo sapiens [4] = organism: Homo sapiens; test: Inhibition of tryptase (unknown origin) at 100 uM relative to control
[5] = molecular target: Coagulation factor XI (Homo sapiens) (UniProt P03951); test: Inhibition of factor 11a (unknown origin) at 100 uM relative to control
[6] = molecular target: T3, Coagulation factor VII (Homo sapiens) (UniProt P08709); test: Inhibition of factor 7a (unknown origin) at 100 uM relative to control
T3 sequence (whole entry): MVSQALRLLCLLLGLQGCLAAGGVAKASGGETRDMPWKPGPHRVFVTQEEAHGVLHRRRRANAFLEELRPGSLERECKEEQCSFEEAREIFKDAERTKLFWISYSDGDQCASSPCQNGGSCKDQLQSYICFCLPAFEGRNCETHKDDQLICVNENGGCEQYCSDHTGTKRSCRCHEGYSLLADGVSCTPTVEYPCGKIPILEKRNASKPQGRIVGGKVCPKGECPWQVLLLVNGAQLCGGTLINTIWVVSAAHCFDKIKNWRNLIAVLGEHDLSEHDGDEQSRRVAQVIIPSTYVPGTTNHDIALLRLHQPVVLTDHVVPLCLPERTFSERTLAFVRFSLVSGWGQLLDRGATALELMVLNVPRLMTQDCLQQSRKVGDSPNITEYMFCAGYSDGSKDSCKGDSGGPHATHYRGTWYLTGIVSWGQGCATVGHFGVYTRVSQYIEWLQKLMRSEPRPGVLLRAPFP

[7] = molecular target: Coagulation factor X (Homo sapiens) (UniProt P00742); test: Inhibition of factor 10a (unknown origin) at 100 uM relative to control
[8] = molecular target: Prothrombin (Homo sapiens) (UniProt P00734); test: Inhibition of factor 2a (unknown origin) at 100 uM relative to control
[9] = molecular target: Urokinase-type plasminogen activator (Homo sapiens) (UniProt P00749); test: Inhibition of urokinase (unknown origin) at 100 uM relative to control
[10] = molecular target: Plasminogen (Homo sapiens) (UniProt P00747); test: Inhibition of plasmin (unknown origin) at 100 uM relative to control
[11] = molecular target: Tissue-type plasminogen activator (Homo sapiens) (UniProt P00750); test: Inhibition of tPA (unknown origin) at 100 uM relative to control
[12] = molecular target: T4, Coagulation factor XII (Homo sapiens) (UniProt P00748); test: Inhibition of factor 12a (unknown origin) at 100 uM relative to control
T4 sequence (whole entry): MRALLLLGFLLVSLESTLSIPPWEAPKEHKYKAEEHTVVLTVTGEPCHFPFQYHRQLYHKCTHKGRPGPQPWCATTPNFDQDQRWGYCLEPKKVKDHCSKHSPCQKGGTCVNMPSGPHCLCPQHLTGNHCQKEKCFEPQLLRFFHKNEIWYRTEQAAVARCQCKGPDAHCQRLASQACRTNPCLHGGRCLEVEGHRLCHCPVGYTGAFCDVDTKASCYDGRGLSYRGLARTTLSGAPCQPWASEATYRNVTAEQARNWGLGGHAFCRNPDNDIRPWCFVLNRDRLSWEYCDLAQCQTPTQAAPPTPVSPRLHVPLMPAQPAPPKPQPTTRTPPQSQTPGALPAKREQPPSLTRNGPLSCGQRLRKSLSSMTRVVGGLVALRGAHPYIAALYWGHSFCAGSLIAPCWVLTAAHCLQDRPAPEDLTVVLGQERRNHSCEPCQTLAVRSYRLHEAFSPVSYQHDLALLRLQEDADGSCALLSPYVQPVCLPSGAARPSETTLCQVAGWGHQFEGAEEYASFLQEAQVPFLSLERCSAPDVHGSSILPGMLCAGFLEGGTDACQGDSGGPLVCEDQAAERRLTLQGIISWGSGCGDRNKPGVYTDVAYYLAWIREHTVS

Cytochrome P450 1A1 = molecular target: T5, Cytochrome P450 1A1 (Homo sapiens, UniProt P04798); test: Induction of CYP1A1 (unknown origin); type: ADME
T5 sequence (P04798 whole entry): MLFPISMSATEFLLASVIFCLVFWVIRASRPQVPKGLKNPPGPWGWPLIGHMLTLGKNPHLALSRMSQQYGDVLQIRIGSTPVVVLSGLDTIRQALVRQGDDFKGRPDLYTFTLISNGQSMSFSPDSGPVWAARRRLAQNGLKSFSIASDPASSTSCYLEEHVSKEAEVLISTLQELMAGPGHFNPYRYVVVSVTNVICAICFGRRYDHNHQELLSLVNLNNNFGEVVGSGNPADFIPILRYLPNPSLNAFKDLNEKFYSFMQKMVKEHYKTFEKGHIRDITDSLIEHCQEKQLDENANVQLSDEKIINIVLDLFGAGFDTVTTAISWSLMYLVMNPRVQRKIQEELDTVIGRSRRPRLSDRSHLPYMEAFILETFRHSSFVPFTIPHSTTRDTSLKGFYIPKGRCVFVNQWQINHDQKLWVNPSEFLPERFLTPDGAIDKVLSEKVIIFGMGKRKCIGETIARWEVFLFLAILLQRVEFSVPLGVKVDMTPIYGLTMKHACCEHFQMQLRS

[13] = Drug metabolism in Swiss CD1 mouse liver microsomes assessed as CYP450/FMO-mediated oxidative metabolism at 5 uM after 20 mins in presence of NADPH; type: ADME; conditions: read-out: Drug metabolism
Cytochrome P450 3A4 = Cytochrome P450 3A4 (Homo sapiens, UniProt P08684); test: Induction of CYP3A4 (unknown origin); type: ADME
[14] = molecular target: Voltage-gated inwardly rectifying potassium channel KCNH2 (Homo sapiens, UniProt Q12809); test: Inhibition of recombinant human ERG expressed in CHO cells by patch clamp method; type: cell-based
[15] = Lipophilicity, log D of the compound at pH 7.4 at 25 degC; type: physicochemical; conditions: buffer
[16] = Permeability across apical to basolateral side in human Caco2/TC7 cells at 20 uM after 120 mins by UPLC/ESI-MS-MS analysis; type: ADME, cell-based; conditions: Caco-2
[17] = Drug metabolism in Sprague-Dawley rat liver microsomes assessed as CYP450/FMO-mediated oxidative metabolism at 5 uM after 20 mins in presence of NADPH; type: ADME; conditions: read-out: Drug metabolism
Cytochrome P450 1A2 = molecular target: T6, Cytochrome P450 1A2 (Homo sapiens, UniProt P05177); test: Induction of CYP1A2 (unknown origin); type: ADME
T6 sequence (P05177 whole entry): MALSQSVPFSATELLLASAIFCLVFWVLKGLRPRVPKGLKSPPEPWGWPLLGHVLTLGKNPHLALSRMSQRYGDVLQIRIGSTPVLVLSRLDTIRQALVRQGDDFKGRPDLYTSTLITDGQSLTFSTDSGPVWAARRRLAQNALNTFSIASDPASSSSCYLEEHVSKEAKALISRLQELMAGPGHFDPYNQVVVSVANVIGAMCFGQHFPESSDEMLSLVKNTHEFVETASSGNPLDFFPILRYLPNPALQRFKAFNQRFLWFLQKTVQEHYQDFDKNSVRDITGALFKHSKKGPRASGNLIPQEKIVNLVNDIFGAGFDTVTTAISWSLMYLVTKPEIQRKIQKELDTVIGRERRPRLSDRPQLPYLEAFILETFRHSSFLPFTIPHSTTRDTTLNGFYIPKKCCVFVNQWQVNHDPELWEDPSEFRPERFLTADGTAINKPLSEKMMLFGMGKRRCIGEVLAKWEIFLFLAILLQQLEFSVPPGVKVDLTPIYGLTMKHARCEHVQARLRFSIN

[18] = Aqueous solubility of the compound at pH 7.4 at 25 degC; type: physicochemical
[19] = Drug metabolism in human liver microsomes assessed as CYP450/FMO-mediated oxidative metabolism at 5 uM after 20 mins in presence of NADPH; type: ADME; conditions: read-out: Drug metabolism
[20] = Intrinsic clearance in human hepatocytes assessed per 10^6 cells; type: ADME, cell-based, Hepatocyte

Sequence of Cytochrome P450 3A4 (P08684 whole entry): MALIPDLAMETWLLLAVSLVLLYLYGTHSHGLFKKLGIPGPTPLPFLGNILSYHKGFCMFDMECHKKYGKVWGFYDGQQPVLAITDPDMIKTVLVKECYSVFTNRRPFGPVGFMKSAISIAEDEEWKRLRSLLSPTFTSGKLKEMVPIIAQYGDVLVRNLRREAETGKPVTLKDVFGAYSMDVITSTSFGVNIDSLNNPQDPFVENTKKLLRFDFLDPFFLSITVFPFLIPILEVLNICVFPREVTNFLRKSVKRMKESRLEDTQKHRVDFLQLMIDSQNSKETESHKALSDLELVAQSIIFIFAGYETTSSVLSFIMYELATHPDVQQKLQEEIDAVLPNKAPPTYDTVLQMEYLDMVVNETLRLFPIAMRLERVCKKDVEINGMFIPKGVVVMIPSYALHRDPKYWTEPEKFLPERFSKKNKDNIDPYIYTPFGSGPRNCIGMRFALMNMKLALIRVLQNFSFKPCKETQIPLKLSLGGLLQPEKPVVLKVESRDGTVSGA
Sequence of Coagulation factor X (Homo sapiens) (P00742 41-179 limits assumed): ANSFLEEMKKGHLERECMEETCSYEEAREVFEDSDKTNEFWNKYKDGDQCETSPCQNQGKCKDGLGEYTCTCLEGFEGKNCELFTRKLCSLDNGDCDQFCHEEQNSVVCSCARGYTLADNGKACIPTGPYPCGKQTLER
Sequence of Coagulation factor X (Homo sapiens) (P00742 235-488 limits assumed): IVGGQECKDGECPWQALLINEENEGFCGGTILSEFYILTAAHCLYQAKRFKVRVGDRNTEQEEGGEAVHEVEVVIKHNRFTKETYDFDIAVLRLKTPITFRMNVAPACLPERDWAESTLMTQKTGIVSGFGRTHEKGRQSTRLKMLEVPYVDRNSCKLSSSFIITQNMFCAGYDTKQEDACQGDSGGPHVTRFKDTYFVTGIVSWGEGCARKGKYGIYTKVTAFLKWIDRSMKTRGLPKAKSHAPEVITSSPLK
Sequence of Voltage-gated inwardly rectifying potassium channel KCNH2 (Q12809 whole entry): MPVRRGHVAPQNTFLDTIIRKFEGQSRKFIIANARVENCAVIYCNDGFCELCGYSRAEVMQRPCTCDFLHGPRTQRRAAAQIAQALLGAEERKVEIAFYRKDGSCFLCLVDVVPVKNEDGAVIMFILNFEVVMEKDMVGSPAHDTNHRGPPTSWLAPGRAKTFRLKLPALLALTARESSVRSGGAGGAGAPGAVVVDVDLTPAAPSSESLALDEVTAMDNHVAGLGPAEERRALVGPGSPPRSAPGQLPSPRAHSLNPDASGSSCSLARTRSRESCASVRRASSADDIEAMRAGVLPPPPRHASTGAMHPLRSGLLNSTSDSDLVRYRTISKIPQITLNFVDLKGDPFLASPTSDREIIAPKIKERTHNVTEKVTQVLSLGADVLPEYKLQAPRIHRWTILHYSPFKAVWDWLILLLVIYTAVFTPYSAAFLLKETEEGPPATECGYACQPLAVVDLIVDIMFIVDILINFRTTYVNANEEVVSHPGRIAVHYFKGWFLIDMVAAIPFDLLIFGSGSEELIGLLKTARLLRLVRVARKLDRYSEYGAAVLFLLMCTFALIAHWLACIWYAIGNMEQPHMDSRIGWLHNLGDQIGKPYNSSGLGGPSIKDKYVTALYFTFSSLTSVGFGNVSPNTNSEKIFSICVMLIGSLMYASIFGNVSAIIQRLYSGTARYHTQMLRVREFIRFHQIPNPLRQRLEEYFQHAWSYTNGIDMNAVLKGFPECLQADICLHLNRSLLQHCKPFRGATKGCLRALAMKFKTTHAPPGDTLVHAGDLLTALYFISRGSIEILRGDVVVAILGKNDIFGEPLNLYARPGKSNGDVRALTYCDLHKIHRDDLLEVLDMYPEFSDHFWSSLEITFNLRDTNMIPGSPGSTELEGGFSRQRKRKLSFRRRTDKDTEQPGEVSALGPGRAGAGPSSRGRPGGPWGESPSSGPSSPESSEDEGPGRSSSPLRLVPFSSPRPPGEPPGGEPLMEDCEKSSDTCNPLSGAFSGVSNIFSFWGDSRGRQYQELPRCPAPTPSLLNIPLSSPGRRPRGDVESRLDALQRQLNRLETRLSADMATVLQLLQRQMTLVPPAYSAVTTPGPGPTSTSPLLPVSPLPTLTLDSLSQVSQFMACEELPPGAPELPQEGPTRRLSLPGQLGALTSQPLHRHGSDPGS
Sequence of Tissue-type plasminogen activator (Homo sapiens) (P00750 36-562 limits assumed): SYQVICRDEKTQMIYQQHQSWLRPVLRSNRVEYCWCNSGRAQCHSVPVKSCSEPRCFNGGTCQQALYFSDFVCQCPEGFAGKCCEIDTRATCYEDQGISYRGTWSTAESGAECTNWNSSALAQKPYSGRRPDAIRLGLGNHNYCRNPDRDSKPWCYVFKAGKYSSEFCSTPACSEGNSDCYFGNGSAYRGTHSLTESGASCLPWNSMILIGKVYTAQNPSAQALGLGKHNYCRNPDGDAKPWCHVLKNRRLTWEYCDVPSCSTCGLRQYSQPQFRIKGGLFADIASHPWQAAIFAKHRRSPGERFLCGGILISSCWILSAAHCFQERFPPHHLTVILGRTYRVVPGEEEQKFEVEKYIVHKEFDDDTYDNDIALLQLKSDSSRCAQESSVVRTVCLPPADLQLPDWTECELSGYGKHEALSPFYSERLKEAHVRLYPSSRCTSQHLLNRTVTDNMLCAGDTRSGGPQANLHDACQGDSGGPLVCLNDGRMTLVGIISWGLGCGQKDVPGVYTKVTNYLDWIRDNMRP
Sequence of Plasma kallikrein (Homo sapiens) (P03952 20-390 limits assumed): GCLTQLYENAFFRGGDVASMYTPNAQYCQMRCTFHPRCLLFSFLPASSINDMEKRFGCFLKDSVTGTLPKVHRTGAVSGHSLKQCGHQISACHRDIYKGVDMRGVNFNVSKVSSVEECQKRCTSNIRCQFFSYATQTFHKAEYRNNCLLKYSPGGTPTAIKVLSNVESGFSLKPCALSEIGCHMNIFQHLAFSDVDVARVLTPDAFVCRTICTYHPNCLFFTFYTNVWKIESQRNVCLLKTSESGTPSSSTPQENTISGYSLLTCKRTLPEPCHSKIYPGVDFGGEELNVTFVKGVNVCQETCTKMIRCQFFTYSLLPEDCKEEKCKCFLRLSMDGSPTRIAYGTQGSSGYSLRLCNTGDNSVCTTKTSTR
Sequence of Plasma kallikrein (Homo sapiens) (P03952 391-638 limits assumed): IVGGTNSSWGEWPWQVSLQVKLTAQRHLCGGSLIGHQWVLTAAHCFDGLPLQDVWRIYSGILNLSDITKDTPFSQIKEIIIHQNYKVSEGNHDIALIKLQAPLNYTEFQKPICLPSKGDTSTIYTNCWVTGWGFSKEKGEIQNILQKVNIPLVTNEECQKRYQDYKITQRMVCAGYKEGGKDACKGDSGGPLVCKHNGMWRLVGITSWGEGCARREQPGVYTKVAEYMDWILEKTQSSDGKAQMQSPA
Sequence of Plasminogen (Homo sapiens) (P00747 97-580 limits assumed): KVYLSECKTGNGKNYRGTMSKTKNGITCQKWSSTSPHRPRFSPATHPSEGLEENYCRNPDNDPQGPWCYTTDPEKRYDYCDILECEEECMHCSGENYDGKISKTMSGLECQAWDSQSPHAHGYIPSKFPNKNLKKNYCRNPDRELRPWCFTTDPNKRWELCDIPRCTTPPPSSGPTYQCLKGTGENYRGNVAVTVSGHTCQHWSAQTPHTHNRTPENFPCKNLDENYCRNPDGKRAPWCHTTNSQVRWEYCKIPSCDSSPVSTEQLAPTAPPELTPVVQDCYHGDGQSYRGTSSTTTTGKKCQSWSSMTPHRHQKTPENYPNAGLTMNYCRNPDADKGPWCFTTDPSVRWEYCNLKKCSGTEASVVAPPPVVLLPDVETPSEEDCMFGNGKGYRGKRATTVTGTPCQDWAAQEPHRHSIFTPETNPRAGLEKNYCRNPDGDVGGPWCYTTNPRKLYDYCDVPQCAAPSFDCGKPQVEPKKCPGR
Sequence of Plasminogen (Homo sapiens) (P00747 581-810 limits assumed): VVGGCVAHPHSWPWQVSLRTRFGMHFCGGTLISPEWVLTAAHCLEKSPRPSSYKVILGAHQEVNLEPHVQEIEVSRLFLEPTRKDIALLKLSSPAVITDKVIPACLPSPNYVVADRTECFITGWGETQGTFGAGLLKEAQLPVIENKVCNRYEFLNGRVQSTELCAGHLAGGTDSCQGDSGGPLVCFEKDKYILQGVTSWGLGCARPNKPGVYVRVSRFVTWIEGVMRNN
Sequence of Coagulation factor XI (Homo sapiens) (P03951 19-387 limits assumed): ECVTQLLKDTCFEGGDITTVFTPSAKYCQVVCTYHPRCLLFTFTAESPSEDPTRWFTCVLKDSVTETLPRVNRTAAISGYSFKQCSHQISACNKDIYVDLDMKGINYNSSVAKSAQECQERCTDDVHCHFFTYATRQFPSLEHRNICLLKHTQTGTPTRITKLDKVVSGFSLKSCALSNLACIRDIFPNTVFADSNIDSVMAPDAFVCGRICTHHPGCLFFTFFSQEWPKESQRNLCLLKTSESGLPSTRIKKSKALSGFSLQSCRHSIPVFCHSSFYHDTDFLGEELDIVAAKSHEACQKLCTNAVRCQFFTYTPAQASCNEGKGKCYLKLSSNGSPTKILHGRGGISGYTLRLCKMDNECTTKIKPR
Sequence of Coagulation factor XI (Homo sapiens) (P03951 388-625 limits assumed): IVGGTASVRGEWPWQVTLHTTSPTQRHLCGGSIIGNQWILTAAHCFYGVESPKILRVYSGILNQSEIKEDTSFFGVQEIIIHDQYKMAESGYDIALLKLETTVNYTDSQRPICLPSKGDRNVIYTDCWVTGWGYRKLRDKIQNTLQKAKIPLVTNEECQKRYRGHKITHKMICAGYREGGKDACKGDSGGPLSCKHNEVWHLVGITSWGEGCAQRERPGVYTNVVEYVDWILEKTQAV

- IC50 (Carboxypeptidase B2): > 30 µM
SMILES: CC1(C)[C@@H]2CC[C@@]1(C)[C@@H](NC(=O)[C@H](CC1CCCCC1)NS(=O)(=O)N[C@@H](CC1CCC(N)CC1)C(=O)O)C2 (some centres undefined)

- IC50 (Carboxypeptidase B2): > 30 µM
SMILES: NCCCC[C@H](NS(=O)(=O)NCC(=O)NC12CC3CC(CC(C3)C1)C2)C(=O)O

- IC50 (Carboxypeptidase B2): > 30 µM
SMILES: NCCCC[C@H](NS(=O)(=O)N[C@H](C(=O)NC12CC3CC(CC(C3)C1)C2)c1ccccc1)C(=O)O

- inhibition [1]: < 40%
- inhibition (Homo sapiens [2]): < 40%
- inhibition [3]: < 40%
- inhibition (Homo sapiens [4]): < 40%
- inhibition [5]: < 40%
- inhibition [6]: < 40%
- inhibition [7]: < 40%
- inhibition [8]: < 40%
- inhibition [9]: < 40%
- inhibition [10]: < 40%
- inhibition [11]: < 40%
- inhibition [12]: < 40%
SMILES: CC1(C)[C@@H]2CC[C@@]1(C)[C@@H](NC(=O)[C@H](CC1CCCCC1)NS(=O)(=O)N[C@@H](CCCCN)C(=O)O)C2

- IC50 (Carboxypeptidase B2): > 30 µM
SMILES: C[C@H](NS(=O)(=O)N[C@@H](CCCCN)C(=O)O)C(=O)NC12CC3CC(CC(C3)C1)C2

- IC50 (Carboxypeptidase B2): 6.4 µM
SMILES: CC1(C)C2CCC1(C)C(OC(=O)[C@H](CC1CCCCC1)NS(=O)(=O)N[C@@H](CCCCN)C(=O)O)C2 (some centres undefined)

- IC50 (Carboxypeptidase B2): 47 µM
SMILES: CC1(C)[C@@H]2CC[C@@]1(C)[C@@H](NC(=O)[C@@H](NS(=O)(=O)N[C@@H](CCCCN)C(=O)O)C1CCCCC1)C2

- Activity (Cytochrome P450 1A1): < 10%
- metabolised at 20 min, 5 µM [13]: 0%
- Activity (Cytochrome P450 3A4): < 10%
- logD [15]: 2.02
- Papp A→B at 2 h, 20 µM [16]: 0.06 ×10⁻⁶ cm/s
- metabolised at 20 min, 5 µM [17]: 8%
- Activity (Cytochrome P450 1A2): < 10%
- solubility [18]: 457 µg/mL
- metabolised at 20 min, 5 µM [19]: 21%
- CLH [20]: 0.043 mL/h
SMILES: CC1(C)[C@@H]2CC[C@@]1(C)[C@@H](NC(=O)[C@H](CC1CCCCC1)NS(=O)(=O)N[C@@H](CCCCN)C(=O)O)C2.Cl
- IC50 [14]: > 10 µM
